Assay results: patent US20260258084A1, “New Peptides as Selective IL-23 Receptor Antagonists” (Sanofi, priority 2022, published 2026)
pIC50: −log10 of the molar value. In brackets after ≈: the same amount, converted by molar mass. Read-outs that look alike come from different tables or passages of the source. Starred links: 1 amine or outer side, 2 acyl side, 3 side chain; linkers in the order of their positions; H or OH if unused. Positions of bridges follow the written chain, without caps; N, C: chain ends. Non-standard residues stand in square brackets, D forms with d. Residues, ends and D or L forms follow the SMILES beside them. *: point of attachment. X3 = CN(CCCCC(=O)N[C@@H](CS[*:2])C(=O)[*:1])[*:3]; Trp(7-Me) = Cc1cccc2c(C[C@H](N)C(=O)O)c[nH]c12; 2Nal = N[C@@H](Cc1ccc2ccccc2c1)C(=O)O; 3Pal = N[C@@H](Cc1cccnc1)C(=O)O; αMeL = CC(C)C[C@](C)(N)C(=O)O; Suc = O=C(CCC(=O)[*:2])[*:1]; αMeP = C[C@@]1(C(=O)O)CCCN1; Thp = NC1(C(=O)O)CCOCC1; Me2NCH2CH2 = CN(C)CC*; Aib = CC(C)(N)C(=O)O; Ava = NCCCCC(=O)O; Sar = CNCC(=O)O

Tests used:
[1] = system: T1, Pepsin; experiment: Protease stability in simulated gastric fluid (Pepsin-SGF, FaSSGF); format: in vitro ADME; conditions: simulated gastric fluid with pepsin (Pepsin-SGF), 60 min, 1 μM peptide, 37° C., read-out: FaSSGF 60 (min), remaining percent of peptide
T1 construct: purchased Merck Millipore
Summary of the method: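 Peptides at 1 μM final in pepsin-containing SGF at 37° C, sampled at 0, 60, 120 and 240 min, quenched with ethanol (0.1% HCOOH). Analysed by LCMS/MS; percent remaining from peak area relative to time 0 (set to 100%).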

[2] = system: IL-23 induced STAT3 signaling in HEK-Blue™ IL-23 cells; experiment: IL-23 induced STAT3 signaling in HEK-Blue IL-23 cells (SEAP reporter); format: cell-based; conditions: human IL23 0.25 ng/ml, read-out: pSTAT3
Summary of the method: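 HEK-Blue IL-23 cells (10,000/well) pre-incubated 60 min at 37 °C with serially diluted peptides, then stimulated overnight with human IL-23 (0.25 ng/ml final). STAT3-driven SEAP in supernatant detected with QUANTI-Blue after 45 min at RT (OD 620-655 nm); dose-response curves fitted.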

[3] = Solubility testing of peptides at different pH; format: physicochemical; conditions: target concentration 1 mg/ml, 2 hours agitation
Summary of the method: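 Solid obtained by drying down DMSO stock was taken up at 1 mg/mL in 50 mM HCl pH 1.2 or 50 mM phosphate pH 6.5, 7.4 or 9.0, agitated gently for 2 h, then filtered (0.45 μm). Solubility by UPLC-UV peak area against a DMSO reference standard curve, corrected for extinction coefficients.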

[4] = system: Pancreatin; experiment: Protease stability in simulated intestinal fluid (Pancreatin-SIF, FaSSIF); format: in vitro ADME; conditions: 1 μM peptide, 37° C.; for remaining at 1 h, 1 µM: 60 min, read-out: FaSSIF 60 (min), remaining percent of peptide; for remaining at 2 h, 1 µM: 120 min, read-out: FaSSIF 120 (min), remaining percent of peptide; for remaining at 4 h, 1 µM: 240 min, read-out: FaSSIF 240 (min), remaining percent of peptide
Summary of the method: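 Peptide (1 μM final) was incubated at 37° C in simulated intestinal fluid containing pancreatin (1 mg per 10 mL SIF concentrate). Samples were quenched with ethanol/0.1% HCOOH at 0, 60, 120 and 240 min and analysed by LC-MS/MS. Percent remaining is the peak area relative to time 0 (100%).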

[5] = molecular target: T2, human interleukin-23 receptor (recombinant human IL-23R-Fc chimera) (Homo sapiens, UniProt Q5VWK5); experiment: Human ELISA IL23/IL23R (assay for specific human IL23R antagonists); format: binding; conditions: Table 10; read-out: Human ELISA IL23/IL23R IC50
T2 construct: Fc (IgG Fc fusion)
Summary of the method: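 Plates coated overnight at 4 °C with human IL23 ([…]), blocked, then serially diluted peptides added with recombinant human IL-23R-Fc (0.1 μg/ml final) for 60 min at room temperature. Bound receptor detected with anti-human IgG1-HRP and fluorogenic peroxidase substrate.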

[6] = 50 mM HCl buffer, 50 mM HCl pH 1.2, read-out: Solubility Buffer pH 1.2
[7] = 50 mM phosphate buffer pH 6.5, read-out: Solubility Buffer pH 6.5
[8] = 50 mM phosphate buffer pH 7.4, read-out: Solubility Buffer pH 7.4
[9] = 50 mM phosphate buffer pH 9.0, read-out: Solubility Buffer pH 9.0

SMILES	remaining at 1 h, 1 µM [1] [%]	pIC50 [2]	solubility at 2 h [3, 6] [µg/mL]	solubility at 2 h [3, 7] [µg/mL]	solubility at 2 h [3, 8] [µg/mL]	solubility at 2 h [3, 9] [µg/mL]	remaining at 1 h, 1 µM [4] [%]	remaining at 2 h, 1 µM [4] [%]	remaining at 4 h, 1 µM [4] [%]	pIC50 [5]
CC(=O)NCCCC[C@@H]1NC(=O)[C@H](Cc2c[nH]c3c(C)cccc23)NC(=O)[C@H]([C@@H](C)O)NC(=O)[C@H](CC(N)=O)NC(=O)[C@@H]2CSSC[C@H](NC1=O)C(=O)N[C@@H](Cc1ccc(OCCN(C)C)cc1)C(=O)N[C@@H](Cc1ccc3ccccc3c1)C(=O)NC1(CCOCC1)C(=O)N[C@H](C(=O)N[C@@H](CC(N)=O)C(=O)N[C@@H](Cc1c[nH]cn1)C(N)=O)CCC(=O)NCCCCC(=O)N2 [compound 21] ([Ava]CNT[Trp(7-Me)]K(Ac)CY(Me2NCH2CH2)[2Nal][Thp]ENH-NH2; disulfide 2-7; lactam N-11)	91	8.57	≥ 1080	≥ 1010	≥ 970	230 (≈ 126 µM)	89	77	75	9.51
CC(=O)NCCCC[C@@H]1NC(=O)[C@H](Cc2c[nH]c3c(C)cccc23)NC(=O)[C@H]([C@@H](C)O)NC(=O)[C@H](CC(N)=O)NC(=O)[C@@H]2CSSC[C@H](NC1=O)C(=O)N[C@@H](Cc1ccc(OCCN(C)C)cc1)C(=O)N[C@@H](Cc1ccc3ccccc3c1)C(=O)NC1(CCOCC1)C(=O)N[C@H](C(=O)N[C@@H](CC(N)=O)C(=O)N[C@@H](Cc1c[nH]cn1)C(=O)N1CCC[C@@]1(C)C(N)=O)CCC(=O)NCCCCC(=O)N2 [compound 55] ([Ava]CNT[Trp(7-Me)]K(Ac)CY(Me2NCH2CH2)[2Nal][Thp]ENH[αMeP]-NH2; disulfide 2-7; lactam N-11)	91	9.02	≥ 1110	≥ 1040	≥ 960	–	89	80	82	9.40
C[C@@H](O)[C@@H]1NC(=O)[C@H](CC(N)=O)NC(=O)[C@@H]2CSSC[C@H](NC(=O)[C@H](CCC(N)=O)NC(=O)[C@H](Cc3c[nH]c4ccccc34)NC1=O)C(=O)N[C@@H](Cc1ccc(OCCN(C)C)cc1)C(=O)N[C@H](Cc1ccc3ccccc3c1)C(=O)NC(C)(C)C(=O)N[C@H](C(=O)N[C@@H](CC(N)=O)C(=O)N[C@@H](CC(N)=O)C(N)=O)CCC(=O)NCCCCC(=O)N2 [compound 8]	92	8.26	≥ 990	≥ 1000	≥ 1020	≥ 1040	97	91	82	9.62
CC(=O)NCCCC[C@@H]1NC(=O)[C@H](Cc2c[nH]c3c(C)cccc23)NC(=O)[C@@H](NC(C)=O)CCCCNC(=O)[C@@H]2CSSC[C@H](NC1=O)C(=O)N[C@@H](Cc1ccc(OCCN(C)C)cc1)C(=O)N[C@@H](Cc1ccc3ccccc3c1)C(=O)NC(C)(C)C(=O)N[C@H](C(=O)N[C@@H](CC(N)=O)C(=O)N[C@@H](Cc1c[nH]cn1)C(N)=O)CCC(=O)N(C)CCCCC(=O)N2 [compound 60] (Ac-K[Trp(7-Me)]K(Ac)CY(Me2NCH2CH2)[2Nal][Aib]ENH-NH2; linker 1-4-8 via X3)	68	9.80	≥ 1020	≥ 1000	≥ 930	–	99	91	91	9.68
CC[C@H](C)[C@H](NC(=O)[C@H](Cc1cccnc1)NC(=O)[C@H](CC(N)=O)NC(=O)[C@@H]1CCC(=O)NCCCCC(=O)N[C@H]2CSSC[C@H](NC(=O)[C@H](CCCCNC(C)=O)NC(=O)[C@H](Cc3c[nH]c4ccccc34)NC(=O)[C@H]([C@@H](C)O)NC(=O)[C@H](CC(N)=O)NC2=O)C(=O)N[C@@H](Cc2ccc(OCCN(C)C)cc2)C(=O)N[C@@H](Cc2ccc3ccccc3c2)C(=O)NC(C)(C)C(=O)N1)C(N)=O [compound 37] ([Ava]CNTWK(Ac)CY(Me2NCH2CH2)[2Nal][Aib]EN[3Pal]I-NH2; disulfide 2-7; lactam N-11)	77	8.70	≥ 890	≥ 940	590 (≈ 311 µM)	90 (≈ 47.5 µM)	80	79	63	9.42
CC(=O)NCCCC[C@@H]1NC(=O)[C@H](Cc2c[nH]c3c(C)cccc23)NC(=O)[C@H]([C@@H](C)O)NC(=O)[C@H](CC(N)=O)NC(=O)[C@@H]2CSSC[C@H](NC1=O)C(=O)N[C@@H](Cc1ccc(OCCN(C)C)cc1)C(=O)N[C@@H](Cc1ccc3ccccc3c1)C(=O)N[C@@](C)(CC(C)C)C(=O)N[C@H](C(=O)N[C@@H](CC(N)=O)C(=O)N[C@@H](Cc1cccnc1)C(=O)N(C)CC(N)=O)CCCCNC(=O)CCC(=O)N2 [compound 103] (CNT[Trp(7-Me)]K(Ac)CY(Me2NCH2CH2)[2Nal][αMeL]KN[3Pal][Sar]-NH2; disulfide 1-6; linker N-10 via Suc)	89	9.96	–	–	–	–	75	73	67	9.25
CC(=O)NCCCC[C@@H]1NC(=O)[C@H](Cc2c[nH]c3c(C)cccc23)NC(=O)[C@H]([C@@H](C)O)NC(=O)[C@H](CC(N)=O)NC(=O)[C@@H]2CSSC[C@H](NC1=O)C(=O)N[C@@H](Cc1ccc(OCCN(C)C)cc1)C(=O)N[C@@H](Cc1ccc3ccccc3c1)C(=O)N[C@@](C)(CC(C)C)C(=O)N[C@H](C(=O)N[C@@H](CC(N)=O)C(=O)N[C@@H](Cc1c[nH]cn1)C(N)=O)CCC(=O)NCCCCC(=O)N2 [compound 22] ([Ava]CNT[Trp(7-Me)]K(Ac)CY(Me2NCH2CH2)[2Nal][αMeL]ENH-NH2; disulfide 2-7; lactam N-11)	60	8.86	–	–	–	–	82	79	79	9.31
CC(=O)NCCCC[C@@H]1NC(=O)[C@H](Cc2c[nH]c3c(C)cccc23)NC(=O)[C@H]([C@@H](C)O)NC(=O)[C@H](CC(N)=O)NC(=O)[C@@H]2CSSC[C@H](NC1=O)C(=O)N[C@@H](Cc1ccc(OCCN(C)C)cc1)C(=O)N[C@@H](Cc1ccc3ccccc3c1)C(=O)NC(C)(C)C(=O)N[C@H](C(=O)N[C@@H](CC(N)=O)C(=O)N[C@@H](Cc1cccnc1)C(=O)N(C)CC(N)=O)CCCCNC(=O)CCC(=O)N2 [compound 157] (CNT[Trp(7-Me)]K(Ac)CY(Me2NCH2CH2)[2Nal][Aib]KN[3Pal][Sar]-NH2; disulfide 1-6; linker N-10 via Suc)	100	10.22	–	–	–	–	80	78	74	9.38
